In patent publication US12479888B2, “Polypeptide and application thereof” (HDL SOLUTIONS OTTAWA, priority 2019, dated 2025):
Values joined by “and” are separate entries in the source; they are usually repeats but may differ in a detail not shown here. Equal values may be shown once. Ends that are not written are not given here. * marks the point of attachment. Stearoyl = CCCCCCCCCCCCCCCCCC(=O)*

What was measured:
Assay type in all cases: in vivo
[1] = Body weight of apoE knockout mice on high-fat diet
Excerpt: (§1) Male apoE knockout mice (C57BL/6J) at age of 10 weeks were purchased from GemPharmatech, Nanjing, Jiangsu, China. The mice were fed with low fat diet [SPF growth and reproduction feed for rats and mice: 12.95% fat (wt/wt), 24.02% protein (wt/wt)] from Beijing KeaoXieli Feed Co. Ltd., Beijing, China in a pathogen-free facility for two weeks, and then divided into the following three groups (8 mice each group): (a) the control group was fed low fat diet, referred to as Chow; (b) the high-fat group was fed high-fat diet (HFD) [21% fat (wt/wt), 0.15% (wt/wt) cholesterol, 20% protein (wt/wt), Research Diets, New Brunswick, NJ, D12079B], referred to as the HFD; (c) the treatment group was fed high-fat diet plus the injection through tail vein with polypeptide 21H21 (50 μg/200μL 1× PBS) once every four days, referred to as the HFD+21H21. The total injection was 10 times. One day after the last injection, the mice were anesthetized and euthanized in carbon dioxide, and then blood, liver and aorta were collected. During the period of the experiment, each group of mice was weighed. All animal experiments were carried out in accordance with the animal management guidelines of the People's Republic of China.

apoE knockout mice [2] = experiment: Oil Red O staining of liver cryostat sections, area of neutral lipids; settings: HFD+21H21 vs HFD, 50 μg tail vein once every four days, 10 injections, p value=0.0004
Excerpt: as §1
Liver tissue collected in Experimental Example 1 was embedded in OCT compound (Sakura Tissue-Tek) and then stored at −80° C. […]

apoE knockout mice [3] = experiment: Oil Red O staining of aortic root cryostat sections, area of neutral lipids; settings: HFD+21H21 vs HFD, 50 μg tail vein once every four days, 10 injections
Excerpt: as §1
The upper half of the heart together with the aortic root tissue collected in Experimental Example 1 was embedded in OCT compound (Sakura Tissue-Tek) and stored at −80° C. […]

apoE knockout mice [4] = experiment: Oil Red O staining of full-length aorta, area of neutral lipids; settings: HFD+21H21 vs HFD, 50 μg tail vein once every four days, 10 injections, p value=4.40108E-05
Excerpt: as §1
Aorta separation in Experimental Example 1 was carried out as Tangirala R K, et al. (Circulation. 1999; 100: 1816-1822). […]

[5] = Body weight of LDLR-deficient mice on high-fat diet
Excerpt: (§2) Male LDLR-deficient mice (C57BL/6-Ldlrem1Cd82/Nju) at age of 11 weeks were purchased fromGemPharmatech, Nanjing, Jiangsu, China. The mice were fed with low fat diet [SPF growth and reproduction feed for rats and mice: 12.95% fat (wt/wt), 24.02% protein (wt/wt)] from Beijing KeaoXieli Feed Co. Ltd., Beijing, China in a pathogen-free facility for two weeks, and then divided into the following three groups (8 mice each group): (a) the control group was fed low fat diet, referred to as Chow; (b) the high-fat group was fed high-fat diet (HFD) [21% fat (wt/wt), 0.15% (wt/wt) cholesterol, 20% protein (wt/wt), Research Diets, New Brunswick, NJ, D12079B], referred to as the HFD; (c) the treatment group was fed high-fat diet plus the injection through tail vein with polypeptide 21H21(50μg/200μL lx PBS) once every three days, referred to as the HFD+21H21. The total injection was 10 times. One day after the last injection, the mice were anesthetized and euthanized in carbon dioxide, and then blood, liver and aorta werecollected. During the period of the experiment, each group of mice was weighed. All animal experiments were carried out in accordance with the animal management guidelines of the People's Republic of China.

LDLR-deficient mice = experiment: Oil Red O staining of full-length aorta, area of neutral lipids; settings: HFD+21H21 vs HFD, 50 μg tail vein once every three days, 10 injections
Excerpt: as §2
Aorta separation in Experimental Example 4 was carried out as Tangirala RK, et al. (Circulation. 1999; 100: 1816-1822). […]

21H21: Stearic acid conjugated to the N-terminus of polypeptide SEQ ID NO: 3 (FAYLQDVVEQAIIRVLTGTEK) (Stearoyl-FAYLQDVVEQAIIRVLTGTEK)
Effect on weight gain by high-fat diet ([1]; 50 μg per mouse i.v. once every four days): able to offset weight gain | Percentage decrease of body weight (HFD + 21H21 vs HFD) ([1]; Day 88): 12.82% | Average body weight per mouse ([1]; Day 88, HFD + 21H21 50 μg tail vein once every four days): 24.38 g | Percentage decrease of body weight (HFD + 21H21 vs HFD) ([1]; Day 97): 14.46% | Average body weight per mouse ([1]; Day 97, HFD + 21H21 50 μg tail vein once every four days): 24.83 g | Percentage decrease of body weight (HFD + 21H21 vs HFD) ([1]; Day 105): 15.79% | Average body weight per mouse ([1]; Day 105, HFD + 21H21 50 μg tail vein once every four days): 25.21 g | Percentage decrease of body weight (HFD + 21H21 vs HFD) ([1]; Day 110): 13.82% | Average body weight per mouse ([1]; Day 110, HFD + 21H21 50 μg tail vein once every four days): 25.61 g | Percentage decrease of body weight (HFD + 21H21 vs HFD) ([1]; Day 119): 12.24% | Average body weight per mouse ([1]; Day 119, HFD + 21H21 50 μg tail vein once every four days): 26.63 g | Percentage decrease of body weight (HFD + 21H21 vs HFD) ([1]; Day 123): 15.04% | Average body weight per mouse ([1]; Day 123, HFD + 21H21 50 μg tail vein once every four days): 26.76 g | Prevention of accumulation of neutral lipids in liver tissue caused by high-fat diet (apoE knockout mice [2]): 53% | Prevention of accumulation of neutral lipids at the aortic root caused by high-fat diet (apoE knockout mice [3]): 35% | Prevention of atherosclerotic lesion of full-length aorta (apoE knockout mice [4]): 48% | Percentage of weight gain during experiment ([5]; HFD + 21H21 50 μg tail vein once every three days): 10.02% | Average body weight after experiment ([5]; HFD + 21H21 50 μg tail vein once every three days, 10 injections): 29.2 ± 0.02 g | Average body weight before experiment ([5]; HFD + 21H21 group (n = 8), baseline): 26.54 ± 0.02 g | Percentage of weight gain offset by 21H21 ([5]; HFD + 21H21 vs HFD): 29% and 29.17% | Prevention of atherosclerotic lesion of full-length aorta (LDLR-deficient mice): 94%
